The term pIC50 denotes the IC50 on a negative log10 scale, so that one unit is a factor of ten.

From patent publication US7217730B2, “Method for the use of pyranoindole derivatives to treat infection with Hepatitis C virus” (Wyeth, priority 2002, dated 2007) come the findings set out here.

The target of the experiment is T1, NS5B from the BK strain (genotype 1b) (Hepatitis C virus genotype 1b, UniProt P26663).
T1 construct: NS5B from the BK strain (genotype 1b) is expressed in E. coli as a protein in which the 21 C-terminal amino acids are replaced; made in house; host or cells: E. coli
T1 sequence (P26663 2420-2989): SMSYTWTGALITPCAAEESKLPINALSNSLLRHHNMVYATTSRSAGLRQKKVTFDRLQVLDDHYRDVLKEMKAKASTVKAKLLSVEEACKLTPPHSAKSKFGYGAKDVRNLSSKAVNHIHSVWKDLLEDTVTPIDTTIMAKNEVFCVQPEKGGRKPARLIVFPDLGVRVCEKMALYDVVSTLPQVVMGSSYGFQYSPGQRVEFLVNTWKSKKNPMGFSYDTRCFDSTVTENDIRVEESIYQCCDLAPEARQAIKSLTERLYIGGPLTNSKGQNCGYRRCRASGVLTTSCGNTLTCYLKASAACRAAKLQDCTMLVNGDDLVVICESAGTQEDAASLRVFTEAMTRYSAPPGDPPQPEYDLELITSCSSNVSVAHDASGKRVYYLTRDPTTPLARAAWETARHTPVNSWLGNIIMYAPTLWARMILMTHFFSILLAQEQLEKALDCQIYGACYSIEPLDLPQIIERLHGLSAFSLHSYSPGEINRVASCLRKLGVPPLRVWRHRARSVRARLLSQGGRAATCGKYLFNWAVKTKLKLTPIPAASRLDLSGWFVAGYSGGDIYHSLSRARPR
Put plainly: Hepatitis C polymerase inhibition, NS5B BK strain, 33P-GTP filter assay. The conditions noted are these: for inhibition at 20 µM: read-out: HCV pol % inh at 20 μM; for pIC50: NS5B BK strain, read-out: HCV pol BK IC50. The experiment is classed as biochemical. The gist of the method:
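E. coli-expressed NS5B (BK, genotype 1b) with the 21 C-terminal residues replaced by a linker-His6 tag was preincubated with compound for 15 min at room temperature. It then extended a hairpin-primed heteropolymeric RNA (~3 nM, ~760 nt product) with α-[33P]-GTP for 2 h at 22–25° C. The reaction was stopped with EDTA, and incorporated label was counted on filters.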

pIC50: −log10 of the molar value. Like-named read-outs stand apart in the source and are kept apart here. Bounds are passed on as bounds.

With `CCC1(CC(=O)O)OCCc2c1[nH]c1c(C)ccc(F)c21` (stereo not shown) [Example 142, (1-ethyl-5-fluoro-1,3,4,9-tetrahydro-8-methyl-pyrano[3,4-b]indol-1-yl)acetic acid], the inhibition at 20 µM (Table 1A, 20 μM compound) turned out to be 39%. The pIC50 (Table 1A) is 4.70.
As to `C/C=C/CCC1(CC(=O)O)OCCc2c1[nH]c1cccc(C#N)c21` (stereo not shown) [Example 60, {5-cyano-1-[(3E)-pent-3-enyl]-1,3,4,9-tetrahydropyrano[3,4-b]indol-1-yl}acetic acid], the inhibition at 20 µM (Table 1A, 20 μM compound) stood at 15%. Further, under “Table 1A”, the pIC50 is below 4.70.
For `CC1(CC(=O)O)OCCc2c1[nH]c1c(Cl)cccc21` (stereo not shown) [Example 72, (8-chloro-1-methyl-1,3,4,9-tetrahydropyrano[3,4-b]indol-1-yl)acetic acid], in that order: 45% and below 4.70.
Turning to `CCC1(CC(=O)O)OCCc2c1[nH]c1c(C(F)(F)F)cccc21` (stereo not shown) [Example 116, [1-ethyl-8-(trifluoromethyl)-1,3,4,9-tetrahydropyrano[3,4-b]indol-1-yl]acetic acid], the inhibition at 20 µM (Table 1A, 20 μM compound) was found to be 34%. The pIC50 (Table 1A) was below 4.70.
In the case of `C/C=C/CCC1(CC(=O)O)OCCc2c1[nH]c1c(C)ccc(F)c21` (stereo not shown) [Example 145, {5-fluoro-8-methyl-1-[(3E)-pent-3-enyl]-1,3,4,9-tetrahydropyrano[3,4-b]indol-1-yl}acetic acid], the inhibition at 20 µM (Table 1A, 20 μM compound) is 20%. In addition, the pIC50 (Table 1A) is below 4.70.
On to `CCCC1(CC(=O)O)OCCc2c1[nH]c1c(F)cc(F)c(C#N)c21` (stereo not shown) [Example 195, (5-cyano-6,8-difluoro-1-propyl-1,3,4,9-tetrahydropyrano[3,4-b]indol-1-yl)acetic acid], for which the inhibition at 20 µM (Table 1A, 20 μM compound) is 90%. For the same molecule, the pIC50 (Table 1A) is 6.57.
In the case of `CC(C)C1(CC(=O)O)OCCc2c1[nH]c1c(F)cc(F)c(Br)c21` (stereo not shown) [Example 193, (5-bromo-6,8-difluoro-1-isopropyl-1,3,4,9-tetrahydropyrano[3,4-b]indol-1-yl)acetic acid], the inhibition at 20 µM (Table 1A, 20 μM compound) turned out to be 69%. In addition, the pIC50 (Table 1A) was 5.35.
With `CCCC1(CC(=O)O)OCCc2c1[nH]c1cccc(-c3ccccc3OC)c21` (stereo not shown) [Example 43, [5-(2-methoxyphenyl)-1-propyl-1,3,4,9-tetrahydropyrano[3,4-b]indol-1-yl]acetic acid], the inhibition at 20 µM was 83%. Also, the pIC50 (Table 1A) is below 4.70.
Regarding `CCCC1(CC(=O)O)OCCc2c1[nH]c1c(C)ccc(Br)c21` (stereo not shown) [Example 153, (5-bromo-8-methyl-1-propyl-1,3,4,9-tetrahydropyrano[3,4-b]indol-1-yl)acetic acid], the inhibition at 20 µM (Table 1A, 20 μM compound) was 93%. Moreover, for the setting “Table 1A”, the pIC50 was 6.52.
In the same order, the values of `CCCC1(CC(=O)O)OCCc2c1[nH]c1c(Cl)cc(C)c(I)c21` (stereo not shown) [Example 217, (8-chloro-5-iodo-6-methyl-1-propyl-1,3,4,9-tetrahydropyrano[3,4-b]indol-1-yl)acetic acid] are 88% and 6.20.
Turning to `CCCC1(CC(=O)O)OCCc2c1[nH]c1c(Cl)cc(Cl)c(Cl)c21` (stereo not shown) [Example 156, (5,6,8-trichloro-1-propyl-1,3,4,9-tetrahydropyrano[3,4-b]indol-1-yl)acetic acid], the inhibition at 20 µM (Table 1A, 20 μM compound) was 88%. Besides, the negative-log IC50 (pIC50) (Table 1A) is 7.10.
`COc1cc(C2(CC(=O)O)OCCc3c2[nH]c2c(Cl)ccc(Cl)c32)cc(OC)c1OC` (stereo not shown) [Example 55, [5,8-dichloro-1-(3,4,5-trimethoxyphenyl)-1,3,4,9-tetrahydropyrano[3,4-b]indol-1-yl]acetic acid]: the inhibition at 20 µM (Table 1A, 20 μM compound) was below 5%. The negative-log IC50 (pIC50) (Table 1A) is below 4.70.
`O=C(O)CC1(c2ccccc2F)OCCc2c1[nH]c1c(Cl)ccc(Cl)c21` (stereo not shown) [Example 56, [5,8-dichloro-1-(2-fluorophenyl)-1,3,4,9-tetrahydropyrano[3,4-b]indol-1-yl]acetic acid]: the inhibition at 20 µM (Table 1A, 20 μM compound) was found to be 3%. For the same molecule, the pIC50 (Table 1A) was below 4.70.
In the case of `CCCC1(CC(=O)O)OCCc2c1[nH]c1c(Cl)cc(C)c(C#N)c21` (stereo not shown) [Example 183, (8-chloro-5-cyano-6-methyl-1-propyl-1,3,4,9-tetrahydropyrano[3,4-b]indol-1-yl)acetic acid], the inhibition at 20 µM (Table 1A, 20 μM compound) came out at 88%. For the same molecule, the pIC50 (Table 1A) was 6.23.
Take `CCCC1(CC(=O)O)OCCc2c1[nH]c1cccc(-c3ccc(-c4ccccc4)cc3)c21` (stereo not shown) [Example 39, [5-(1,1′-biphenyl-4-yl)-1-propyl-1,3,4,9-tetrahydropyrano[3,4-b]indol-1-yl]acetic acid]: where the note is “Table 1A, 20 μM compound”, the inhibition at 20 µM amounted to 7%. For the same molecule, the pIC50 (Table 1A) is below 4.70.
In the same order, the values of `CCCC1(CC(=O)O)OCCc2c1[nH]c1cccc(-c3ccccc3)c21` (stereo not shown) [Example 31, (5-phenyl-1-propyl-1,3,4,9-tetrahydropyrano[3,4-b]indol-1-yl)acetic acid] are 12% and below 4.70.
Take `CC(C)CCCC1(CC(=O)O)OCCc2c1[nH]c1c(Cl)ccc(Cl)c21` (stereo not shown) [Example 54, [5,8-dichloro-1-(4-methylpentyl)-1,3,4,9-tetrahydropyrano[3,4-b]indol-1-yl]acetic acid]: for the setting “Table 1A, 20 μM compound”, the inhibition at 20 µM came out at 6%. For the same molecule, the pIC50 (Table 1A) is below 4.70.
For `CCC[C@@]1(CC(=O)O)OCCc2c1[nH]c1c(Cl)ccc(Cl)c21` [Example 9, [(S)-5,8-dichloro-1-propyl-1,3,4,9-tetrahydropyrano[3,4-b]indol-1-yl]acetic acid], the pIC50 (Table 1A) was 5.96.
Regarding `CCC1(CC(=O)O)OCCc2c1[nH]c1c(F)cc(F)c(C#N)c21` (stereo not shown) [Example 194, (5-cyano-1-ethyl-6,8-difluoro-1,3,4,9-tetrahydropyrano[3,4-b]indol-1-yl)acetic acid], the inhibition at 20 µM (Table 1A, 20 μM compound) is 50%. Also, under “Table 1A”, the pIC50 was below 5.30.
As for `CCC1(CC(=O)O)OCCc2c1[nH]c1c(Cl)cccc21` (stereo not shown) [Example 73, (8-chloro-1-ethyl-1,3,4,9-tetrahydropyrano[3,4-b]indol-1-yl)acetic acid], the inhibition at 20 µM (Table 1A, 20 μM compound) turned out to be 22%. For the same molecule, the pIC50 (Table 1A) was below 4.70.
Consider “(8-fluoro-5-iodo-6-methyl-1-propyl-1,3,4,9-tetrahydropyrano[3,4-b]indol-1-yl)acetic acid [Example 218]”, for which, under “Table 1A, 20 μM compound”, the “HCV pol % inh at 20 μM” value is listed as 92%. Besides, for the setting “Table 1A”, the pIC50 was 6.54.
Turning to `CCCC1(CC(=O)O)OCCc2c1[nH]c1cccc(C#N)c21` (stereo not shown) [Example 58, (5-cyano-1-propyl-1,3,4,9-tetrahydro-pyrano[3,4-b]indol-1-yl)acetic acid], the inhibition at 20 µM (Table 1A, 20 μM compound) came out at 78%. For the same molecule, under “Table 1A”, the pIC50 is 5.16.
For `N#Cc1cccc2[nH]c3c(c12)CCOC3(CC(=O)O)c1ccc([N+](=O)[O-])cc1` (stereo not shown) [Example 64, [5-cyano-1-(4-nitrophenyl)-1,3,4,9-tetrahydropyrano[3,4-b]indol-1-yl]acetic acid], in that order: 18% and below 4.70.
Take `CCC1(CC(=O)O)OCCc2c1[nH]c1c(Br)ccc(Br)c21` (stereo not shown) [Example 210, (5,8-dibromo-1-ethyl-1,3,4,9-tetrahydropyrano[3,4-b]indol-1-yl)acetic acid]: the inhibition at 20 µM (Table 1A, 20 μM compound) amounted to 87%. Further, where the note is “Table 1A”, the negative logarithm of the IC50 (pIC50) is 6.37.
Regarding `CCCC1(CC(=O)O)OCCc2c1[nH]c1cccc(-c3ccc(OC)cc3)c21` (stereo not shown) [Example 33, [5-(4-methoxyphenyl)-1-propyl-1,3,4,9-tetrahydropyrano[3,4-b]indol-1-yl]acetic acid], the inhibition at 20 µM (Table 1A, 20 μM compound) was below 5%. Moreover, the pIC50 (Table 1A) was below 4.70.
Regarding `CCCC1(CC(=O)O)OCCc2c1[nH]c1c(C)cc(F)c(C#N)c21` (stereo not shown) [Example 10, (5-cyano-6-fluoro-8-methyl-1-propyl-1,3,4,9-tetrahydropyrano[3,4-b]indol-1-yl)acetic acid], the pIC50 (Table 1A) is 7.10.
For the molecule `CCCC1(CC(=O)O)OCCc2c1[nH]c1c(F)ccc(Br)c21` (stereo not shown) [Example 152, (5-bromo-8-fluoro-1-propyl-1,3,4,9-tetrahydropyrano[3,4-b]indol-1-yl)acetic acid], the inhibition at 20 µM (Table 1A, 20 μM compound) is 87%. The pIC50 (Table 1A) is 6.00.
For `O=C(O)CC1(c2ccc(C(=O)O)cc2)OCCc2c1[nH]c1c(Br)cccc21` (stereo not shown) [Example 87, 4-[8-bromo-1-(carboxymethyl)-1,3,4,9-tetrahydropyrano[3,4-b]indol-1-yl]benzoic acid], in that order: 42% and below 4.70.
In the case of `CCCCC1(CC(=O)O)OCCc2c1[nH]c1c(F)ccc(F)c21` (stereo not shown) [Example 126, (1-butyl-5,8-difluoro-1,3,4,9-tetrahydropyrano[3,4-b]indol-1-yl)acetic acid], the inhibition at 20 µM (Table 1A, 20 μM compound) worked out at 35%. For the same molecule, the pIC50 (Table 1A) is below 4.70.
For the molecule `CCCC1(CC(=O)O)OCCc2c1[nH]c1cccc(-c3ccc(Br)cc3)c21` (stereo not shown) [Example 41, [5-(4-bromophenyl)-1-propyl-1,3,4,9-tetrahydropyrano[3,4-b]indol-1-yl]acetic acid], under “Table 1A, 20 μM compound”, the inhibition at 20 µM is 13%. The pIC50 (Table 1A) was below 4.70.
`Cc1cc(F)c(Br)c2c3c([nH]c12)C(C)(CC(=O)O)OCC3` (stereo not shown) [Example 199, (5-bromo-6-fluoro-1,8-dimethyl-1,3,4,9-tetrahydropyrano[3,4-b]indol-1-yl)acetic acid]: under “Table 1A, 20 μM compound”, the inhibition at 20 µM came to 52%. Further, the pIC50 (Table 1A) was below 5.30.
For `O=C(O)CC1(c2ccccc2)OCCc2c1[nH]c1c(Cl)cc(Cl)c(Cl)c21` (stereo not shown) [Example 160, (5,6,8-trichloro-1-phenyl-1,3,4,9-tetrahydropyrano[3,4-b]indol-1-yl)acetic acid], the inhibition at 20 µM (Table 1A, 20 μM compound) is 15%. The negative-log IC50 (pIC50) (Table 1A) was below 4.70.
With `CC1(CC(=O)O)OCCc2c1[nH]c1c(C(F)(F)F)cccc21` (stereo not shown) [Example 115, [1-methyl-8-(trifluoromethyl)-1,3,4,9-tetrahydropyrano[3,4-b]indol-1-yl]acetic acid], the inhibition at 20 µM (Table 1A, 20 μM compound) stood at 40%. The pIC50 (Table 1A) was below 4.70.
